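Interpolation was linear, between the two tested concentrations surrounding the appropriate level; five concentrations were tested over 48 hours in 96-well plates. TGI: total growth inhibition.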
What was measured:
Experiment in all cases: NCI tumour cell line growth inhibition, 48 h
786-0 renal = tested on: 786-0 renal
A498 renal = tested on: A498 renal
ACHN renal = tested on: ACHN renal
BT-549 breast = tested on: BT-549 breast
CAKI-1 renal = tested on: CAKI-1 renal
CCRF-CEM leukemia = tested on: CCRF-CEM leukemia
COLO 205 colon = tested on: COLO 205 colon
DU-145 prostate = tested on: DU-145 prostate
EKVX NSCLC = tested on: EKVX NSCLC
HCC-2998 colon = tested on: HCC-2998 colon
HCT-15 colon = tested on: HCT-15 colon
HL-60(TB) leukemia = tested on: HL-60(TB) leukemia
HOP-62 NSCLC = tested on: HOP-62 NSCLC
HOP-92 NSCLC = tested on: HOP-92 NSCLC
HS 578T breast = tested on: HS 578T breast
HT29 colon = tested on: HT29 colon
IGROV1 ovarian = tested on: IGROV1 ovarian
K-562 leukemia = tested on: K-562 leukemia
KM12 colon = tested on: KM12 colon
LOX IMVI melanoma = tested on: LOX IMVI melanoma
M14 melanoma = tested on: M14 melanoma
MALME-3M melanoma = tested on: MALME-3M melanoma
MCF7 breast = tested on: MCF7 breast
MDA-MB-231 breast = tested on: MDA-MB-231 breast
MDA-MB-435 = tested on: MDA-MB-435
MDA-N = tested on: MDA-N
MOLT-4 leukemia = tested on: MOLT-4 leukemia
NCI-H226 lung = tested on: NCI-H226 lung
NCI-H23 lung = tested on: NCI-H23 lung
NCI-H460 lung = tested on: NCI-H460 lung
NCI-H522 lung = tested on: NCI-H522 lung
NCI/ADR-RES ovarian = tested on: NCI/ADR-RES ovarian
OVCAR-3 ovarian = tested on: OVCAR-3 ovarian
OVCAR-4 ovarian = tested on: OVCAR-4 ovarian
OVCAR-5 ovarian = tested on: OVCAR-5 ovarian
OVCAR-8 ovarian = tested on: OVCAR-8 ovarian
PC-3 prostate = tested on: PC-3 prostate
RPMI-8226 leukemia = tested on: RPMI-8226 leukemia
SF-268 CNS = tested on: SF-268 CNS
SF-295 CNS = tested on: SF-295 CNS
SF-539 CNS = tested on: SF-539 CNS
SK-MEL-28 melanoma = tested on: SK-MEL-28 melanoma
SK-MEL-5 melanoma = tested on: SK-MEL-5 melanoma
SK-OV-3 ovarian = tested on: SK-OV-3 ovarian
SN12C renal = tested on: SN12C renal
SNB-19 CNS = tested on: SNB-19 CNS
SNB-75 CNS = tested on: SNB-75 CNS
SR leukemia = tested on: SR leukemia
SW-620 colon = tested on: SW-620 colon
TK-10 renal = tested on: TK-10 renal
U251 CNS = tested on: U251 CNS
UACC-257 melanoma = tested on: UACC-257 melanoma
UACC-62 melanoma = tested on: UACC-62 melanoma
UO-31 renal = tested on: UO-31 renal

Measured: TGI

CC(C)C(/C=C/c1ccc(Cl)c(Cl)c1)=N\NC(=O)N/N=C(/C=C/c1ccc(Cl)c(Cl)c1)C(C)C
> 100 µM: all assays above

From PubChem BioAssay (NCI)
